Experimental data from patent US20130040882A1, “USE OF FIBROBLAST GROWTH FACTOR FRAGMENTS” (NOVARTIS AG, priority 2003, published 2013).

Tested on: uterine gene expression
Experiment: Gene expression profiling (HGU133A) in the uterus of ovariectomized monkeys treated with estradiol, tamoxifen or raloxifene
Format: in vivo, cynomolgus monkeys (Macaca fascicularis)
Details: uterus, OVX monkeys

C#C[C@]1(O)CC[C@H]2[C@@H]3CCc4cc(O)ccc4[C@H]3CC[C@@]21C [EE]
Fold change relative to SHAM control: Insulin-like growth factor binding protein 2, 36 kda: 4.4 fold
Fold change relative to SHAM control: Insulin-like growth factor binding protein 5: 2.8 fold
Fold change relative to SHAM control: Integrin, beta 5: 1.0 fold
Fold change relative to SHAM control: Intercrine-alpha, mrna sequence: 0.9 fold
Fold change relative to SHAM control: LDL receptor adaptor protein: 0.8 fold
Fold change relative to SHAM control: LIM and senescent cell antigen-like domains 1: 1.4 fold
Fold change relative to SHAM control: Laminin, beta 1: 1.0 fold
Fold change relative to SHAM control: Latent transforming growth factor beta binding protein 1: 1.7 fold
Fold change relative to SHAM control: Matrix metalloproteinase 19: 1.2 fold
Fold change relative to SHAM control: Mitogen-activated protein kinase kinase kinase kinase 4: 0.9 fold
Fold change relative to SHAM control: Nidogen (enactin): 2.6 fold
Fold change relative to SHAM control: Osteoglycin (osteoinductive factor, mimecan): 1.0 fold
Fold change relative to SHAM control: Peroxiredoxin 1: 1.6 fold
Fold change relative to SHAM control: Phosphatase and tensin homolog (mutated in multiple advanced cancers 1): 1.2 fold
Fold change relative to SHAM control: Phospholipid transfer protein: 1.3 fold
Fold change relative to SHAM control: Pituitary tumour-transforming 1 interacting protein: 0.9 fold
Fold change relative to SHAM control: Procollagen C-endopeptidase enhancer: 1.5 fold
Fold change relative to SHAM control: Procollagen-proline, 2-oxoglutarate 4-dioxygenase (proline 4-hydroxylase), alpha polypeptide II: 1.7 fold
Fold change relative to SHAM control: Progesterone receptor: 3.2 fold
Fold change relative to SHAM control: Protein tyrosine kinase 9: 1.3 fold
Fold change relative to SHAM control: SET domain, bifurcated 1: 2.3 fold
Fold change relative to SHAM control: SPARC-like 1 (mast9, hevin): 1.5 fold
Fold change relative to SHAM control: Secreted frizzled-related protein 1: 3.6 fold
Fold change relative to SHAM control: Secreted frizzled-related protein 4: 1.9 fold
Fold change relative to SHAM control: Secreted protein, acidic, cysteine-rich (osteonectin): 1.4 fold
Fold change relative to SHAM control: Serine (or cysteine) proteinase inhibitor, clade H (heat shock protein 47), member 1, (collagen binding protein 1): 1.6 fold
Fold change relative to SHAM control: Solute carrier family 22 (organic cation transporter), member 1-like: 1.6 fold
Fold change relative to SHAM control: Solute carrier family 25 (mitochondrial carrier; adenine nucleotide translocator), member 5: 1.7 fold
Fold change relative to SHAM control: Stem cell growth factor; lymphocyte secreted C-type lectin: 1.4 fold
Fold change relative to SHAM control: Tenascin C (hexabrachion): 0.9 fold
Fold change relative to SHAM control: Testis Enhanced Gene Transcript (Bax Inhibitor 1): 1.8 fold
Fold change relative to SHAM control: Thioredoxin interacting protein: 0.5 fold
Fold change relative to SHAM control: Transforming growth factor, beta-induced, 68 kda: 0.8 fold
Fold change relative to SHAM control: Ubiquinol-cytochrome c reductase, Rieske iron-sulfur polypeptide 1: 1.1 fold
Fold change relative to SHAM control: Wingless-type MMTV integration site family, member 2B: 1.5 fold
Fold change relative to SHAM control: Wingless-type MMTV integration site family, member 16: 0.9 fold
Fold change relative to OVX: Insulin receptor (Table 46): 0.8 fold
Fold change relative to SHAM control: Insulin receptor (Table 46): 1.2 fold
Fold change relative to OVX: Insulin receptor (Table 51): 0.8 fold
Fold change relative to SHAM control: Insulin receptor (Table 51): 1.2 fold
Fold change relative to OVX: Fibronectin 1 (entry with OVX average 39): 1.6 fold
Fold change relative to OVX: Bone morphogenetic protein 1 (entry with OVX average 79): 2.6 fold
Fold change relative to OVX: Bone morphogenetic protein 1 (entry with OVX average 93): 2.9 fold
Fold change relative to OVX: Insulin-like growth factor 1 (somatomedin C) (entry with OVX average 102): 5.3 fold
Fold change relative to OVX: Fibrillin 1 (Marfan syndrome) (entry with OVX average 124): 2.2 fold
Fold change relative to OVX: Collagen, type I, alpha 2 (entry with OVX average 154): 13.2 fold
Fold change relative to OVX: Insulin-like growth factor 1 (somatomedin C) (entry with OVX average 156): 6.9 fold
Fold change relative to OVX: Solute carrier family 2 (facilitated glucose/fructose transporter), member 5 (entry with OVX average 171): 4.4 fold
Fold change relative to OVX: Solute carrier family 2 (facilitated glucose/fructose transporter), member 5 (entry with OVX average 176): 3.5 fold
Fold change relative to OVX: Collagen, type IV, alpha 1 (entry with OVX average 182): 4.3 fold
Fold change relative to OVX: Cyclin-dependent kinase inhibitor 1C (p57, Kip2) (entry with OVX average 224): 0.5 fold
Fold change relative to OVX: Insulin-like growth factor 1 (somatomedin C) (entry with OVX average 310): 6.3 fold
Fold change relative to OVX: Fibronectin 1 (entry with OVX average 419): 2.4 fold
Fold change relative to OVX: Cyclin-dependent kinase inhibitor 1C (p57, Kip2) (entry with OVX average 527): 0.4 fold
Fold change relative to OVX: Fibronectin 1 (entry with OVX average 586): 2.1 fold
Fold change relative to OVX: Fibronectin 1 (entry with OVX average 648): 1.9 fold
Fold change relative to OVX: Collagen, type IV, alpha 1 (entry with OVX average 690): 3.7 fold
Fold change relative to OVX: Fibronectin 1 (entry with OVX average 757): 1.8 fold
Fold change relative to OVX: Cyclin-dependent kinase inhibitor 1C (p57, Kip2) (entry with OVX average 762): 0.5 fold
Fold change relative to OVX: ATP synthase, H+ transporting, mitochondrial F0 complex, subunit c (subunit 9) isoform 3 (entry with OVX average 811): 2.0 fold
Fold change relative to OVX: Fibrillin 1 (Marfan syndrome) (entry with OVX average 874): 3.5 fold
Fold change relative to OVX: ATP synthase, H+ transporting, mitochondrial F0 complex, subunit c (subunit 9) isoform 3 (entry with OVX average 1007): 2.0 fold
Fold change relative to OVX: Collagen, type III, alpha 1 (Ehlers-Danlos syndrome type IV, autosomal dominant) (entry with OVX average 1084): 6.8 fold
Fold change relative to OVX: Collagen, type I, alpha 2 (entry with OVX average 2757): 5.1 fold
Fold change relative to OVX: Collagen, type III, alpha 1 (Ehlers-Danlos syndrome type IV, autosomal dominant) (entry with OVX average 3445): 4.1 fold
Fold change relative to OVX: H3 histone, family 3A (entry with OVX average 9495): 1.5 fold
Fold change relative to OVX: H3 histone, family 3A (entry with OVX average 9692): 1.4 fold
Fold change relative to SHAM control: Fibronectin 1 (entry with SHAM average 100): 0.6 fold
Fold change relative to SHAM control: Bone morphogenetic protein 1 (entry with SHAM average 143): 1.4 fold
Fold change relative to SHAM control: Cyclin-dependent kinase inhibitor 1C (p57, Kip2) (entry with SHAM average 201): 0.6 fold
Fold change relative to SHAM control: Bone morphogenetic protein 1 (entry with SHAM average 205): 1.3 fold
Fold change relative to SHAM control: Insulin-like growth factor 1 (somatomedin C) (entry with SHAM average 226): 2.4 fold
Fold change relative to SHAM control: Fibrillin 1 (Marfan syndrome) (entry with SHAM average 236): 1.2 fold
Fold change relative to SHAM control: Solute carrier family 2 (facilitated glucose/fructose transporter), member 5 (entry with SHAM average 291): 2.1 fold
Fold change relative to SHAM control: Solute carrier family 2 (facilitated glucose/fructose transporter), member 5 (entry with SHAM average 317): 2.4 fold
Fold change relative to SHAM control: Insulin-like growth factor 1 (somatomedin C) (entry with SHAM average 417): 2.6 fold
Fold change relative to SHAM control: Collagen, type IV, alpha 1 (entry with SHAM average 436): 1.8 fold
Fold change relative to SHAM control: Cyclin-dependent kinase inhibitor 1C (p57, Kip2) (entry with SHAM average 459): 0.5 fold
Fold change relative to SHAM control: Collagen, type I, alpha 2 (entry with SHAM average 493): 4.1 fold
Fold change relative to SHAM control: Insulin-like growth factor 1 (somatomedin C) (entry with SHAM average 581): 3.4 fold
Fold change relative to SHAM control: Cyclin-dependent kinase inhibitor 1C (p57, Kip2) (entry with SHAM average 660): 0.5 fold
Fold change relative to SHAM control: Fibronectin 1 (entry with SHAM average 920): 1.1 fold
Fold change relative to SHAM control: ATP synthase, H+ transporting, mitochondrial F0 complex, subunit c (subunit 9) isoform 3 (entry with SHAM average 1045): 1.6 fold
Fold change relative to SHAM control: Fibronectin 1 (entry with SHAM average 1089): 1.1 fold
Fold change relative to SHAM control: Collagen, type IV, alpha 1 (entry with SHAM average 1143): 2.2 fold
Fold change relative to SHAM control: Fibronectin 1 (entry with SHAM average 1288): 0.9 fold
Fold change relative to SHAM control: Fibronectin 1 (entry with SHAM average 1301): 1.1 fold
Fold change relative to SHAM control: ATP synthase, H+ transporting, mitochondrial F0 complex, subunit c (subunit 9) isoform 3 (entry with SHAM average 1355): 1.5 fold
Fold change relative to SHAM control: Fibrillin 1 (Marfan syndrome) (entry with SHAM average 1388): 2.2 fold
Fold change relative to SHAM control: Collagen, type III, alpha 1 (Ehlers-Danlos syndrome type IV, autosomal dominant) (entry with SHAM average 2992): 2.5 fold
Fold change relative to SHAM control: Collagen, type III, alpha 1 (Ehlers-Danlos syndrome type IV, autosomal dominant) (entry with SHAM average 7354): 1.9 fold
Fold change relative to SHAM control: Collagen, type I, alpha 2 (entry with SHAM average 7758): 1.8 fold
Fold change relative to SHAM control: H3 histone, family 3A (entry with SHAM average 9408): 1.5 fold
Fold change relative to SHAM control: H3 histone, family 3A (entry with SHAM average 10239): 1.4 fold
